According to patent US20120009257A1 (priority 2009, published 2012):

How the values were obtained:
[1] = Bioequivalence study of fixed combination versus free combination, plasma PK by LC/MS/MS; type: in vivo, healthy subjects
Method: Pharmacokinetic measurements were performed on blood collected from each subject. […] The PK parameters were determined in plasma, using non-compartmental methods.
AUC0-tlast: Area under the concentration-time curve from time zero to time tlast, where tlast is the last time point with measurable concentration (ng hr/ml).
AUC0-inf: Area under the plasma concentration-time curve from time zero to infinity (ng hr/ml).
Cmax: Maximum (peak) plasma concentration (ng/ml).
Tmax: Time to reach peak or maximum concentration (hr).
T1/2: Elimination half-life associated with the terminal slope (E) of a semilogarithmic concentration-time curve (hr).

[2] = drug substance; cited from earlier work

SMILES	intra-subject CV for AUC0-inf ([1]; valsartan)	intra-subject CV for AUC0-tlast ([1]; valsartan)	intra-subject CV for Cmax ([1]; valsartan)	intra-subject coefficient of variation (CV) for AUC0-inf ([1]; aliskiren)	intra-subject coefficient of variation (CV) for AUC0-tlast ([1]; aliskiren)	intra-subject coefficient of variation (CV) for Cmax ([1]; aliskiren)	hygroscopicity [2]
CCCCC(=O)N(Cc1ccc(-c2ccccc2-c2nnn[nH]2)cc1)[C@H](C(=O)O)C(C)C [Valsartan]	28.33%	28.56%	40.37%				
COCCCOc1cc(C[C@@H](C[C@H](N)[C@@H](O)C[C@H](C(=O)NCC(C)(C)C(N)=O)C(C)C)C(C)C)ccc1OC [Aliskiren, 2(S),4(S),5(S),7(S)—N-(3-amino-2,2-dimethyl-3-oxopropyl)-2,7-di(1-methylethyl)-4-hydroxy-5-amino-8-[4-methoxy-3-(3-methoxy-propoxy)phenyl]-octanamide]				33.19%	33.98%	51.90%	highly hygroscopic
